Reference: patent US9290496B2, “Purine derivatives” (PFIZER INC., priority 2013, dated 2016)
Structures can show the parent of a compound that is named as a salt. Where two headings read alike, the source gives them in different places.

Legend:
Format in all cases: cell-based
[1] = biological target: T1, EGFR wildtype, endogenous (A549) (Homo sapiens, UniProt P00533); experiment: pEGFR Y1068 ELISA assay, A549 cells; conditions: inhibition of phosphorylation of EGFR at Tyr1068; A549 NSCLC cells; 2 hr compound incubation, then stimulated 10 min with EGF (40 ng/mL)
T1 construct: A549 (EGFR wildtype, endogenous); host or cells: A549 (stimulated with EGF)
T1 sequence (P00533 25-1210): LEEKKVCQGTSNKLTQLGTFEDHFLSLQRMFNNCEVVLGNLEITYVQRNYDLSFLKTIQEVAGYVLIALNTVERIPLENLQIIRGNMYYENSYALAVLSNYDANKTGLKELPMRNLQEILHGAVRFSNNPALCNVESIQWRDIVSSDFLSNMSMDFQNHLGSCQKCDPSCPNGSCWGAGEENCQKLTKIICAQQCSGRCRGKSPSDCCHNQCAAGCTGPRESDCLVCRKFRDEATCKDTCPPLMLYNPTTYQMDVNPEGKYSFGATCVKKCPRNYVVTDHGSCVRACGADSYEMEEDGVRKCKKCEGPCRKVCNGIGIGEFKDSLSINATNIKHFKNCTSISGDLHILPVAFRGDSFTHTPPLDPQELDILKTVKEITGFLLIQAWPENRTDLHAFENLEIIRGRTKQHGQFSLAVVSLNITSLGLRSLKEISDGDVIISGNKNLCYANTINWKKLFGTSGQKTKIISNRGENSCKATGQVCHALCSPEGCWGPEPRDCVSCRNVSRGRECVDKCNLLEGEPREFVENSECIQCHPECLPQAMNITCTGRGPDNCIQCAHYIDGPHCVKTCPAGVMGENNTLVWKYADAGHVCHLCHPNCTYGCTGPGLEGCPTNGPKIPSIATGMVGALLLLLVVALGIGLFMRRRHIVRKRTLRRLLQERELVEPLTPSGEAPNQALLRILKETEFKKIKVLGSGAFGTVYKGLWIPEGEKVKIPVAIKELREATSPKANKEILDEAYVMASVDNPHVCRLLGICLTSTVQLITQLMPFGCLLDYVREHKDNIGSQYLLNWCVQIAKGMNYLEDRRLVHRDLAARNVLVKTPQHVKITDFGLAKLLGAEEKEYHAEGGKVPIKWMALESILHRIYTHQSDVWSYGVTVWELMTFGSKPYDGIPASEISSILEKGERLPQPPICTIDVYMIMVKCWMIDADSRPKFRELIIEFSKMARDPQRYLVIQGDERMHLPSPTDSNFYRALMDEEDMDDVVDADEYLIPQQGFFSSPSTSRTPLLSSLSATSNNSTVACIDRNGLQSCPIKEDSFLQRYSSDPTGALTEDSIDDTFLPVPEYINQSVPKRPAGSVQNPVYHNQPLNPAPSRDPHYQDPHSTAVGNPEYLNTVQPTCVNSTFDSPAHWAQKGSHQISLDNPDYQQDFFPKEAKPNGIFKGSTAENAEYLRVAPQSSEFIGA
Protocol: Phosphorylation of EGFR at Y1068 was measured by PathScan® Phospho-EGF Receptor (Try1068) Sandwich ELISA kit (#7240, Cell Signaling Technology®, Danvers, Mass.). The PathScan® Phospho-EGF Receptor (Tyr1068) Sandwich ELISA Kit is a solid phase sandwich enzyme-linked immunosorbent assay (ELISA) that detects endogenous levels of phospho-EGF Receptor (Tyr1068) protein. […] All cells were cultured according to ATCC recommendations. A549, NCI-H1975, PC9, and NCI-H3255 cells were grown in RPMI media (Invitrogen, Carlsbad, Calif.) supplemented with 10% FBS (Sigma, St Louis, Mo.), and with 1% Penn/Strep (Invitrogen). PC9-DRH cells were grown in RPMI with 10% FBS and 1 μM dacomitinib.
Cells were plated at 40,000/well in complete culture media (50 μL/well) on the bottom of clear tissue culture treated microtiter plates (#3595, Corning Inc, Corning, N.Y.) and allowed to adhere overnight at 37° C., 5% CO2. The following day, compound dilution plates were prepared in 96 well clear V-bottom 0.5 mL polypropylene block plates (#3956, Corning, Inc). Each compound was prepared as a DMSO stock solution (10 mM). Compounds were tested in duplicate on each plate, with an 11-point serial dilution curve (1:3 dilution). Compound treatment (50 μL) was added from the compound dilution plate to the cell plate. […] Plates were then incubated for 2 hr at 37° C., 5% CO2. For A549 (EGFR wildtype) assay, cells were plated in full-serum (10%) media for 24 hr prior to compound treatment; cells were treated in full serum media as described and then stimulated for 10 min with EGF (40 ng/mL/starvation media, Invitrogen). Immediately prior to the end of the incubation, ice-cold lysis buffer was prepared (1× Cell Lysis Buffer (#9803, Cell Signaling Technology), 1 mM sodium orthovanadate (Na3VO4, #96508, Sigma), 1 mM phenylmethanesulfonyl fluoride (PMSF, 52332, CalBiochem/EMD Chemicals), complete Mini EDTA-free Protease Inhibitor Cocktail Tablet (1 tablet/10 mL, #11836170001, Roche, Indianapolis, Ind.), and PhosSTOP Phosphatase Inhibitor Cocktail Tablet (1 tablet/10 mL, #04906837001, Roche) in pure water. At the end of 2 hr, media was flicked off and cells were washed once with ice-cold 1 mM Na3VO4 in PBS (100 μL/well, Invitrogen). The wash was then flicked off and ice-cold lysis buffer was added to the cells (50 μL/well). The plate was shaken for 20-30 min at 4° C. to completely lyse the cells. Sample diluent (50 μL/well) was added to the ELISA plate, and the lysate (50 μL) was diluted into the sample diluent in each well of the ELISA plate. Plates were sealed and incubated overnight at 4° C. with shaking. The next day, wells were washed four times with 1× Wash Buffer; plates were taped on lint-free paper after the final wash prior to adding Add Detection Antibody (green, 100 μL/well) to each well and incubating for 1 hr at 37° C. After incubation, wells were washed as described. HRP-Linked secondary antibody (red, 100 μL/well) was added to each well and incubated for 30 min at 37° C. After incubation, the wells were washed as described. TMB Substrate (100 μL/well) was added to each well and the plate incubated for 10 min at 37° C. or 30 min at rt maximum. Stop Solution (100 μL/well) was added to each well at the end of the incubation and plates were shaken gently for a few seconds. Absorbance was read at 450 nm within 30 min after addition of Stop Solution on a PerkinElmer EnVision Excite Multilabel Reader Method for Absorbance or on a Molecular Devices SpectraMax^384 Reader for absorbance. Data were analyzed using a four-parameter fit in Microsoft Excel.

EGFR del/T790M (PC9-DRH) = biological target: T2, EGFR del/T790M (PC9-DRH) (Homo sapiens, UniProt P00533, DEL746-750/T790M); experiment: pEGFR Y1068 ELISA assay, PC9-DRH cells; conditions: inhibition of phosphorylation of EGFR at Tyr1068; PC9-DRH cells (dacomitinib resistant); 2 hr compound incubation
T2 construct: detects endogenous levels of phospho-EGF Receptor (Tyr1068) protein; endogenous in cells; host or cells: PC9-DRH (dacomitinib-resistant derivative of PC9, generated in house)
T2 sequence (P00533 with tags, fused parts or gaps DEL746-750/T790M): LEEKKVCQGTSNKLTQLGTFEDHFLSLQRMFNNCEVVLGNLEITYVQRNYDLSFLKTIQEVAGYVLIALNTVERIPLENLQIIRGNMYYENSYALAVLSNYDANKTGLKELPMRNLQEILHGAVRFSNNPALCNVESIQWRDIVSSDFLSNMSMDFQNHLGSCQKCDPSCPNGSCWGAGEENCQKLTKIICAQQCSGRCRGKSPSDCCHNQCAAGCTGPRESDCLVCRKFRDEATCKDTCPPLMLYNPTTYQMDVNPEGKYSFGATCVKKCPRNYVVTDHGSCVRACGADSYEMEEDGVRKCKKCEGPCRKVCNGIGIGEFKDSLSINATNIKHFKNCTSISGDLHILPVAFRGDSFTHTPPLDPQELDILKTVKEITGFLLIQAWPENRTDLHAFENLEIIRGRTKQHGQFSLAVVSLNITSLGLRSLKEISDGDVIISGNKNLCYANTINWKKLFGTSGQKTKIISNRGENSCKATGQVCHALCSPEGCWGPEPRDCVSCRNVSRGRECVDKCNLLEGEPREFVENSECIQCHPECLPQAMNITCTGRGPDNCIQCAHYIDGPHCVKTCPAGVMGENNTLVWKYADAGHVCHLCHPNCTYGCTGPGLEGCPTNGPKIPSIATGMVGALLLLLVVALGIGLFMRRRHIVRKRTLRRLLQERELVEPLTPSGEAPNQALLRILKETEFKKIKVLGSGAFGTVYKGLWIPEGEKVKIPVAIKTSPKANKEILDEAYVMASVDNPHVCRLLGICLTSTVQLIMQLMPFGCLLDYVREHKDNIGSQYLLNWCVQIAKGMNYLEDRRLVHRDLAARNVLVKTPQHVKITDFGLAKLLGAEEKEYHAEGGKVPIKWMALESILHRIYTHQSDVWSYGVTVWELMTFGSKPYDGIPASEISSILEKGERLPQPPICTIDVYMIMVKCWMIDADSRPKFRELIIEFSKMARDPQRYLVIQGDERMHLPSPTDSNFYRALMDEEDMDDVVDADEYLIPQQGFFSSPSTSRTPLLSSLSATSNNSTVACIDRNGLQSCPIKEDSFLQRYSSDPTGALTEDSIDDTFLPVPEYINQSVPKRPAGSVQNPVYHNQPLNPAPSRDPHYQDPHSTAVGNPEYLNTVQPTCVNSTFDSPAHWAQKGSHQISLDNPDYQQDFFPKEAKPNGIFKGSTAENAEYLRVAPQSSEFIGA
Protocol: (§1) The PathScan® Phospho-EGF Receptor (Tyr1068) Sandwich ELISA Kit is a solid phase sandwich enzyme-linked immunosorbent assay (ELISA) that detects endogenous levels of phospho-EGF Receptor (Tyr1068) protein. […] NCI-H3255 cells were licensed from NCI. […] All cells were cultured according to ATCC recommendations. A549, NCI-H1975, PC9, and NCI-H3255 cells were grown in RPMI media (Invitrogen, Carlsbad, Calif.) supplemented with 10% FBS (Sigma, St Louis, Mo.), and with 1% Penn/Strep (Invitrogen).
(§2) Each compound was prepared as a DMSO stock solution (10 mM). Compounds were tested in duplicate on each plate, with an 11-point serial dilution curve (1:3 dilution). Compound treatment (50 μL) was added from the compound dilution plate to the cell plate. […] Plates were then incubated for 2 hr at 37° C., 5% CO2. […] The wash was then flicked off and ice-cold lysis buffer was added to the cells (50 μL/well). The plate was shaken for 20-30 min at 4° C. to completely lyse the cells. Sample diluent (50 μL/well) was added to the ELISA plate, and the lysate (50 μL) was diluted into the sample diluent in each well of the ELISA plate. Plates were sealed and incubated overnight at 4° C. with shaking. The next day, wells were washed four times with 1× Wash Buffer; plates were taped on lint-free paper after the final wash prior to adding Add Detection Antibody (green, 100 μL/well) to each well and incubating for 1 hr at 37° C. After incubation, wells were washed as described. HRP-Linked secondary antibody (red, 100 μL/well) was added to each well and incubated for 30 min at 37° C. After incubation, the wells were washed as described. TMB Substrate (100 μL/well) was added to each well and the plate incubated for 10 min at 37° C. or 30 min at rt maximum. Stop Solution (100 μL/well) was added to each well at the end of the incubation and plates were shaken gently for a few seconds. […] Data were analyzed using a four-parameter fit in Microsoft Excel.

EGFR del (PC9) = biological target: T3, EGFR del (PC9) (Homo sapiens, UniProt P00533, DEL746-750); experiment: pEGFR Y1068 ELISA assay, PC9 cells; conditions: inhibition of phosphorylation of EGFR at Tyr1068; PC9 NSCLC cells; 2 hr compound incubation
T3 construct: detects endogenous levels of phospho-EGF Receptor (Tyr1068) protein; host or cells: PC9
T3 sequence (P00533 with tags, fused parts or gaps DEL746-750): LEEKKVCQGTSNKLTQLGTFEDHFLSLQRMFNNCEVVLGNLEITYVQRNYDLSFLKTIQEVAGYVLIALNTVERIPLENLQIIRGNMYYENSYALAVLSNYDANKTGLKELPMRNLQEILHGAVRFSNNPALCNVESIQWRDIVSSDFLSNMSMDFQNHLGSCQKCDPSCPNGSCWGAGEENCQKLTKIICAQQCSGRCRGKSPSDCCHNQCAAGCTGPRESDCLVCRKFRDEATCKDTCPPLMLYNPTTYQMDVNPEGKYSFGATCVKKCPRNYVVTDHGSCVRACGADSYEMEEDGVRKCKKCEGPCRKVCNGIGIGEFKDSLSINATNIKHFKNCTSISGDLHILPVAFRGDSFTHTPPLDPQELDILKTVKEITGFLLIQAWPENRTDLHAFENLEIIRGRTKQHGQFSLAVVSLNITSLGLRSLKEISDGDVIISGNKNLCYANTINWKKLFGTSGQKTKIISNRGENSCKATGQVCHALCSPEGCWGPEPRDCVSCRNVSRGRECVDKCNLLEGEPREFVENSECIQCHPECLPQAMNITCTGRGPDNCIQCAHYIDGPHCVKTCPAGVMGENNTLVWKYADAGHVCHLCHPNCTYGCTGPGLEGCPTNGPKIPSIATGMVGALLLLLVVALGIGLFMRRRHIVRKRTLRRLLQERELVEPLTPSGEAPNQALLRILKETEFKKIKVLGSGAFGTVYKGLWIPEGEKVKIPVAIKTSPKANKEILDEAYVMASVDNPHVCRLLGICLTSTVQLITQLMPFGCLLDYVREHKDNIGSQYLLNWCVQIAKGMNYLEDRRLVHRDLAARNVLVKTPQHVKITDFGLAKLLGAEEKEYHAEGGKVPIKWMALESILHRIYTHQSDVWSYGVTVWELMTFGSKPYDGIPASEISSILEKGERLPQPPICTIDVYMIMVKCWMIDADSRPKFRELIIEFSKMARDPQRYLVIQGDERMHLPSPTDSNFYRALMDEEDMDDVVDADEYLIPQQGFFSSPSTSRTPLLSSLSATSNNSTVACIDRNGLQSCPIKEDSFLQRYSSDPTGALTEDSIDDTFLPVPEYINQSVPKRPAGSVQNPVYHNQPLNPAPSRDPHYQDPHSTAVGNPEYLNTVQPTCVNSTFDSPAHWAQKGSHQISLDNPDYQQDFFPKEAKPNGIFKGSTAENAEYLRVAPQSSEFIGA
Protocol: as §1, §2

EGFR L858R (NCI-H3255) = biological target: T4, EGFR L858R (NCI-H3255) (Homo sapiens, UniProt P00533, L858R); experiment: pEGFR Y1068 ELISA assay, NCI-H3255 cells
T4 construct: detects endogenous levels of phospho-EGF Receptor (Tyr1068) protein; host or cells: NCI-H3255
T4 sequence (P00533 25-1210 L858R): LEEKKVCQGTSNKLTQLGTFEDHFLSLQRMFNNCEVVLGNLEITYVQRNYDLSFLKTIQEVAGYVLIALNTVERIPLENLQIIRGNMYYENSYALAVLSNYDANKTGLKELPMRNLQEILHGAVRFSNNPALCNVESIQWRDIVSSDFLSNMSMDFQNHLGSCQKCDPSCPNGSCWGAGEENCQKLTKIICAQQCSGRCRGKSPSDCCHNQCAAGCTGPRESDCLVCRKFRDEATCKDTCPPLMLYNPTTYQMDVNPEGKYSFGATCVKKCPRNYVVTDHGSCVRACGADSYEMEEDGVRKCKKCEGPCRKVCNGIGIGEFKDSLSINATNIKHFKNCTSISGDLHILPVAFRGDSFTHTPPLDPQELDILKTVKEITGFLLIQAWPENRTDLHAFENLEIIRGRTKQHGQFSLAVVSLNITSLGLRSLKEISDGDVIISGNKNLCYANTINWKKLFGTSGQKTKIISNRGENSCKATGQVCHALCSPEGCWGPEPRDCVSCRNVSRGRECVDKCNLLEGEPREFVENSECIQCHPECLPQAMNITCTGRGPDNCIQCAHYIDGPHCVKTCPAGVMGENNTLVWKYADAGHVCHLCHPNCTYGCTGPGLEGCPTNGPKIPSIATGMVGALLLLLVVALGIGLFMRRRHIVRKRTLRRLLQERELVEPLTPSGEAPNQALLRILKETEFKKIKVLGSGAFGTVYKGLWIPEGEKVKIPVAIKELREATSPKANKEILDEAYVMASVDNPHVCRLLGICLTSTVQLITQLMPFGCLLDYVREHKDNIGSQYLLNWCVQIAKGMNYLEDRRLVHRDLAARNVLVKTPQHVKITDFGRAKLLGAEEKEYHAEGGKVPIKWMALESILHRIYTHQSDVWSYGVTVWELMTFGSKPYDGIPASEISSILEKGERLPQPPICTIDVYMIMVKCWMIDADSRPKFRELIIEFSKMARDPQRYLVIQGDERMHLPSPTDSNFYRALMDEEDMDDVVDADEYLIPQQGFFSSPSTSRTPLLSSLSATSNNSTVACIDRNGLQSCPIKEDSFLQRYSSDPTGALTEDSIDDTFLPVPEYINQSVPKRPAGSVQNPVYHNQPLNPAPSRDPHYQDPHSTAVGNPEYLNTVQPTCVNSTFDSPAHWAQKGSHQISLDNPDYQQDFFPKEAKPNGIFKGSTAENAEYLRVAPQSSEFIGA
Protocol: as §1, §2

[2] = biological target: T5, EGFR L858R+T790M, endogenous (NCI-H1975) (Homo sapiens, UniProt P00533, L858R/T790M); experiment: pEGFR Y1068 ELISA assay, NCI-H1975 cells; conditions: inhibition of phosphorylation of EGFR at Tyr1068; NCI-H1975 NSCLC cells; 2 hr compound incubation
T5 construct: NCI-H1975 (EGFR L858R+T790M, endogenous); host or cells: NCI-H1975

[3] = inhibition of phosphorylation of EGFR at Tyr1068, NCI-H3255 NSCLC cells, 2 hr compound incubation

SMILES: C=CC(=O)N1C[C@@H]2CN(c3nc(Nc4ccc(N5CCN(C)CC5)cc4)c4ncn(C(C)C)c4n3)C[C@@H]2C1 [Example 21, 1-((cis)-5-(9-isopropyl-6-((4-(4-methylpiperazin-1-yl)phenyl)amino)-9H-purin-2-yl)hexahydropyrrolo[3,4-c]pyrrol-2(1H)-yl)prop-2-en-1-one]
- IC50 [1]: 181 nM
- IC50 (EGFR del/T790M (PC9-DRH)): 18 nM
- IC50 (EGFR del (PC9)): 8 nM
- IC50 (EGFR L858R (NCI-H3255); [3]): 8 nM
- IC50 [2]: 14 nM

SMILES: C=CC(=O)N[C@@H]1CN(c2nc(Nc3cn(CC)nc3OC)c3ncn(C)c3n2)C[C@H]1F [Example 88, N-((3R,4R)-1-(6-((1-ethyl-3-methoxy-1H-pyrazol-4-yl)amino)-9-methyl-9H-purin-2-yl)-4-fluoropyrrolidin-3-yl)acrylamide]
- IC50 [1]: 194 nM
- IC50 (EGFR del/T790M (PC9-DRH)): 1 nM
- IC50 (EGFR del (PC9)): 6 nM
- IC50 (EGFR L858R (NCI-H3255); [3]): 2 nM
- IC50 [2]: 6 nM

SMILES: C=CC(=O)N[C@@H]1CN(c2nc(Nc3cn(CC(C)O)nc3OC)c3ncn(C(C)C)c3n2)C[C@H]1F (stereo partly drawn) [Example 84, N-((3R,4R)-4-fluoro-1-(6-((1-(2-hydroxypropyl)-3-methoxy-1H-pyrazol-4-yl)amino)-9-isopropyl-9H-purin-2-yl)pyrrolidin-3-yl)acrylamide]
- IC50 [1]: 1200 nM
- IC50 (EGFR del/T790M (PC9-DRH)): 3 nM
- IC50 (EGFR del (PC9)): 45 nM
- IC50 (EGFR L858R (NCI-H3255)): 9 nM
- IC50 [2]: 15 nM

SMILES: C=CC(=O)N(C)[C@H]1C[C@H](Oc2nc(Nc3ccc(N4CCN(C)CC4)cc3)c3ncn(C(C)C)c3n2)C1 [Example 29, N-((trans)-3-((9-isopropyl-6-((4-(4-methylpiperazin-1-yl)phenyl)amino)-9H-purin-2-yl)oxy)cyclobutyl)-N-methylacrylamide]
- IC50 [1]: 698 nM
- IC50 (EGFR del/T790M (PC9-DRH)): 61 nM
- IC50 (EGFR del (PC9)): 40 nM
- IC50 (EGFR L858R (NCI-H3255)): 35 nM
- IC50 [2]: 35 nM

SMILES: C=CC(=O)N[C@H]1CCN(c2nc(Nc3cnn(C)c3)c3ncn(C(C)C)c3n2)C1 [Example 4, (S)-N-(1-(9-isopropyl-6-((1-methyl-1H-pyrazol-4-yl)amino)-9H-purin-2-yl)pyrrolidin-3-yl)acrylamide]
- IC50 [1]: 652 nM
- IC50 (EGFR del (PC9)): 52 nM
- IC50 (EGFR L858R (NCI-H3255)): 59 nM
- IC50 [2]: 52 nM

SMILES: C=CC(=O)N[C@H]1CCN(c2nc(Nc3ccc(N4CCN(C)CC4)cc3)c3ncn(CCO)c3n2)C1 [Example 46, (S)-N-(1-(9-(2-hydroxyethyl)-6-((4-(4-methylpiperazin-1-yl)phenyl)amino)-9H -purin-2-yl)pyrrolidin-3-yl)acrylamide]
- IC50 [1]: 4190 nM
- IC50 (EGFR del (PC9)): 31 nM
- IC50 (EGFR L858R (NCI-H3255); [3]): 7 nM
- IC50 [2]: 387 nM

SMILES: C=CC(=O)N[C@H]1CCN(c2nc(Nc3cnn(C4CCN(C)CC4)c3)c3ncn(C(C)C)c3n2)C1 [Example 41, (S)-N-(1-(9-isopropyl-6-((1-(1-methylpiperidin-4-yl)-1H-pyrazol-4-yl)amino)-9H -purin-2-yl)pyrrolidin-3-yl)acrylamide]
- IC50 [1]: 3040 nM
- IC50 (EGFR del/T790M (PC9-DRH)): 3 nM
- IC50 (EGFR del (PC9)): 38 nM
- IC50 (EGFR L858R (NCI-H3255)): 9 nM
- IC50 [2]: 64 nM

SMILES: C=CC(=O)N[C@@H]1CN(c2nc(Nc3cn(C4CCN(C)C4)nc3C)c3ncn(C(C)C)c3n2)C[C@H]1F (stereo partly drawn) [Example 55, N-((3R,4R)-4-fluoro-1-(9-isopropyl-6-((3-methyl-1-(1-methylpyrrolidin-3-yl)-1H -pyrazol-4-yl)amino)-9H-purin-2-yl)pyrrolidin-3-yl)acrylamide]
- IC50 [1]: 273 nM
- IC50 (EGFR del/T790M (PC9-DRH)): 3 nM
- IC50 (EGFR del (PC9)): 3 nM
- IC50 (EGFR L858R (NCI-H3255)): 2 nM
- IC50 [2]: 9 nM

SMILES: C=CC(=O)N[C@@H]1CN(c2nc(Nc3cn(C4CCN(C)C4)nc3OC)c3ncn(CC)c3n2)C[C@H]1F (stereo partly drawn) [Example 75, N-((3R,4R)-1-(9-ethyl-6-((3-methoxy-1-(1-methylpyrrolidin-3-yl)-1H-pyrazol-4-yl)amino)-9H-purin-2-yl)-4-fluoropyrrolidin-3-yl)acrylamide]
- IC50 [1]: 64 nM
- IC50 (EGFR del/T790M (PC9-DRH)): 2 nM
- IC50 (EGFR L858R (NCI-H3255)): 1 nM
- IC50 [2]: 11 nM

SMILES: C=CC(=O)N[C@H]1CCN(c2nc(Nc3ccc(N4CCN(C)CC4)cc3)c3ncn(C(C)C)c3n2)C1 [Example 1, (S)-N-(1-(9-isopropyl-6-((4-(4-methylpiperazin-1-yl)phenyl)amino)-9H-purin-2-yl)pyrrolidin-3-yl)acrylamide]
- IC50 [1]: 277 nM
- IC50 (EGFR del/T790M (PC9-DRH)): 18 nM
- IC50 (EGFR del (PC9)): 22 nM
- IC50 (EGFR L858R (NCI-H3255)): 19 nM
- IC50 [2]: 19 nM

SMILES: C=CC(=O)NC1(C)CN(c2nc(Nc3cnn(C)c3)c3ncn(C(C)C)c3n2)C1 [Example 13, N-(1-(9-isopropyl-6((1-methyl-1H-pyrazol-4-yl)amino)-9H-purin-2-yl)-3-methylazetidin-3-yl)acrylamide]
- IC50 [1]: 2440 nM
- IC50 (EGFR del/T790M (PC9-DRH)): 25 nM
- IC50 (EGFR del (PC9)): 40 nM
- IC50 (EGFR L858R (NCI-H3255)): 80 nM
- IC50 [2]: 40 nM

SMILES: C=CC(=O)N[C@H]1CCN(c2nc(Nc3cnn(C4CCN(C)C4)c3)c3ncn(C(C)C)c3n2)C1 (stereo partly drawn) [Example 45, N-((3S)-1-(9-isopropyl-6-((1-(1-methylpyrrolidin-3-yl)-1H-pyrazol-4-yl)amino)-9H -purin-2-yl)pyrrolidin-3-yl)acrylamide]
- IC50 [1]: 1910 nM
- IC50 (EGFR del/T790M (PC9-DRH)): 3 nM
- IC50 (EGFR del (PC9)): 7 nM
- IC50 [2]: 26 nM

SMILES: C=CC(=O)N[C@@H]1CN(c2nc(Nc3cnn(C)c3)c3ncn(C(C)C)c3n2)C[C@H]1OC [Example 63, N-((3R,4R)-1-(9-isopropyl-6-((1-methyl-1H-pyrazol-4-yl)amino)-9H-purin-2-yl)-4-methoxypyrrolidin-3-yl)acrylamide]
- IC50 [1]: 551 nM
- IC50 (EGFR del/T790M (PC9-DRH)): 5 nM
- IC50 (EGFR del (PC9)): 14 nM
- IC50 [2]: 32 nM

SMILES: C=CC(=O)N[C@@H]1CN(c2nc(Nc3cn(C4CCN(C)C4)nc3OC)c3ncn(C)c3n2)C[C@H]1F (stereo partly drawn) [Example 79, N-((3R,4R)-4-fluoro-1-(6-((3-methoxy-1-(1-methylpyrrolidin-3-yl)-1H-pyrazol-4-yl)amino)-9-methyl-9H-purin-2-yl)pyrrolidin-3-yl)acrylamide]
- IC50 [1]: 100 nM
- IC50 (EGFR del/T790M (PC9-DRH)): 1 nM
- IC50 (EGFR del (PC9)): 3 nM
- IC50 (EGFR L858R (NCI-H3255)): 3 nM
- IC50 [2]: 6 nM

SMILES: C=CC(=O)N[C@@H]1CN(c2nc(Nc3ccc(N4CCN(C)CC4)cc3)c3ncn(C(C)C)c3n2)C[C@H]1OC [Example 62, N-((3R,4R)-1-(9-isopropyl-6-((4-(4-methylpiperazin-1-yl)phenyl)amino)-9H-purin-2-yl)-4-methoxypyrrolidin-3-yl)acrylamide]
- IC50 (EGFR del (PC9)): 3 nM
- IC50 (EGFR L858R (NCI-H3255)): 1 nM
- IC50 [2]: 6 nM

SMILES: C=CC(=O)NC1(C)CN(c2nc(Nc3cnn(C4CCN(C)CC4)c3)c3ncn(C(C)C)c3n2)C1 [Example 39, N-(1-(9-isopropyl-6-((1-(1-methylpiperidin-4-yl)-1H-pyrazol-4-yl)amino)-9H-purin-2-yl)-3-methylazetidin-3-yl)acrylamide]
- IC50 [1]: 2850 nM
- IC50 (EGFR del/T790M (PC9-DRH)): 10 nM
- IC50 (EGFR del (PC9)): 20 nM
- IC50 [2]: 66 nM

SMILES: C=CC(=O)N[C@@H]1CN(c2nc(Nc3cn(C)nc3C)c3ncn(C(C)C)c3n2)C[C@H]1F [Example 61, N-((3R,4R)-1-(6-((1,3-dimethyl-1H-pyrazol-4-yl)amino)-9-isopropyl-9H-purin-2-yl) -4-fluoropyrrolidin-3-yl)acrylamide]
- IC50 [1]: ≥ 10000 nM
- IC50 (EGFR del/T790M (PC9-DRH)): 2130 nM
- IC50 (EGFR del (PC9)): 6650 nM
- IC50 [2]: 6140 nM

SMILES: C=CC(=O)N[C@@H]1CN(c2nc(Nc3cn(C4CCN(C)C4)nc3C)c3ncn(C(C)C)c3n2)C[C@H]1F (stereo partly drawn) [Example 65, N-((3R,4R)-4-fluoro-1-(9-isopropyl-6-((3-methyl-1-(1-methylpyrrolidin-3-yl)-1H -pyrazol-4-yl)amino)-9H-purin-2-yl)pyrrolidin-3-yl)acrylamide]
- IC50 [1]: 1260 nM
- IC50 (EGFR del/T790M (PC9-DRH)): 9 nM
- IC50 (EGFR del (PC9)): 11 nM
- IC50 [2]: 14 nM

SMILES: C=CC(=O)N[C@@H]1CN(c2nc(Nc3cn(C4CN(C)C4)nc3OC)c3ncn(C)c3n2)C[C@H]1F [Example 5, N-((3R,4R)-4-fluoro-1-(6-((3-methoxy-1-(1-methylazetidin-3-yl)-1H-pyrazol-4-yl)amino)-9-methyl-9H-purin-2-yl)pyrrolidin-3-yl)acrylamide]
- IC50 [1]: 546 nM
- IC50 (EGFR del/T790M (PC9-DRH)): 8 nM
- IC50 [2]: 17 nM

SMILES: C=CC(=O)N[C@H]1CCN(c2nc(Nc3ccc(N4CCN(C)CC4)cc3)c3ncn(C)c3n2)C1 [Example 38, (S)-N-(1-(9-methyl-6-((4-(4-methylpiperazin-1-yl)phenyl)amino)-9H-purin-2-yl)pyrrolidin-3-yl)acrylamide]
- IC50 [1]: 255 nM
- IC50 (EGFR del/T790M (PC9-DRH)): 6 nM
- IC50 [2]: 15 nM

SMILES: C=CC(=O)Nc1cccc(Oc2nc(Nc3cnn(C)c3)c3ncn(C(C)C)c3n2)c1 [Example 3, N-(3-((9-isopropyl-6-((1-methyl-1H-pyrazol-4-yl)amino)-9H-purin-2-yl)oxy)phenyl)acrylamide trifluoroacetate]
- IC50 [1]: 162 nM
- IC50 (EGFR del/T790M (PC9-DRH)): 8 nM
- IC50 [2]: 20 nM

SMILES: C=CC(=O)N1C[C@@H]2CN(c3nc(Nc4cnn(C)c4)c4ncn(CC)c4n3)C[C@@H]2C1 [Example 16, 1-((cis)-5-(9-ethyl-6-((1-methyl-1H-pyrazol-4-yl)amino)-9H-purin-2-yl)hexahydropyrrolo[3,4-c]pyrrol-2(1H)-yl)prop-2-en-1-one]
- IC50 [1]: 507 nM
- IC50 (EGFR del/T790M (PC9-DRH)): 91 nM
- IC50 [2]: 88 nM
